Results taken from patent US5369111A, “Modulator agent and use thereof” (University of Vermont, priority 1992, dated 1994).
Entries after “also recorded” stand apart in the source; their conditions may differ. Like-named read-outs stand apart in the source and are kept apart here.

Legend:
[1] = tested on: S180 cell system (S180, A3, A10); experiment: Inherent cytotoxicity in the S180 cell system (S180, A3, A10); assay type: cell-based, murine; settings: for IC50: Mus musculus; for inherent cytotoxicity / resistance profile (in words): S180, A3, A10
From the text: (§1) The analogs were examined in a panel of tumor cell lines of both intrinsic and acquired drug resistance, as described in Table 1. The rat colon adenocarcinoma cell lines RCC-2 and RCC-5 (ref. 13) were maintained in Ham's F12 medium supplemented with 5% heat-inactivated, fetal bovine serum (Sterile Systems. Hyclone, Logan, Utah). The two rat colon cancer cell lines differ in their degree of cellular differentiation; whereas the RCC-2 cell line is undifferentiated, the RCC-5 cell line is highly mucinous. The human epidermoid carcinoma cell line KB-3-1 and its MDR variant KB-Vl, selected by VBL treatment (ref. 14; courtesy of M. Gottesman. National Cancer Institute), was maintained in DMEM medium supplemented with 10%, heat-inactivated, fetal bovine serum. The murine sarcoma cell line […] and its MDR strains A3 and A10 selected by ADM treatment (ref. 15; courtesy of T. Tritton, Dept. Pharmacology, Univ. Vermont). were maintained in DMEM medium supplemented with 10% heat-inactivated, horse serum (Hazelton Biolog. Lenexa, Kans.). Stock cultures were subcultured twice weekly upon reaching the late exponential phase of population growth: population doubling times were 18-24 h. Antibiotics were not used in stock or experimental cultures. The MDR cell strains were grown in drug-free media for 48 h prior to experimental use.
(§2) Mid-exponential cultures were used for all assays. The RCC-2 and RCC-5 cell lines were seeded into 24-well plates at 2×10^4 cells/well and allowed to attach to the substratum for 16-18 h prior to treatment. The S180 cell lines were seeded into culture tubes at 1×10^5 cells/ml and treated immediately. Cytotoxicity was determined by quantitation of population growth after 72 h incubation by electronic particle counter (Coulter Electronics, Hialeah, Fla.). The human tumor cell lines were used in a clonogenic assay for cytotoxicity. Cells were seeded at 300 cells/dish, incubated overnight and then treated. Colonies were scored 7-11 days later. In all assays of analog modulation of drug sensitivity, the analog was added minutes prior to the addition of cytotoxic drug.
FIG. 2 represents the toxicity of the vinca alkaloid compounds to population growth. Vindoline, vincovaline or the analog, C-20'-deoxy vincovaline was added, at various concentrations, to S180 (.cndot.), A3 (o), or A10 (Δ) cell cultures. The population cell number was determined 72 hours later.

[2] = Inhibition of population growth of rat colon cancer cell lines RCC-2 and RCC-5; assay type: cell-based; settings: rat, rcc-2 and rcc-5 cells; read-out: non-toxic concentration limit
From the text: The analogs were examined in a panel of tumor cell lines of both intrinsic and acquired drug resistance, as described in Table 1. The rat colon adenocarcinoma cell lines RCC-2 and RCC-5 (ref. 13) were maintained in Ham's F12 medium supplemented with 5% heat-inactivated, fetal bovine serum (Sterile Systems. Hyclone, Logan, Utah). The two rat colon cancer cell lines differ in their degree of cellular differentiation; whereas the RCC-2 cell line is undifferentiated, the RCC-5 cell line is highly mucinous. The human epidermoid carcinoma cell line KB-3-1 and its MDR variant KB-Vl, selected by VBL treatment (ref. 14; courtesy of M. Gottesman. National Cancer Institute), was maintained in DMEM medium supplemented with 10%, heat-inactivated, fetal bovine serum. […]
Mid-exponential cultures were used for all assays. […] Cytotoxicity was determined by quantitation of population growth after 72 h incubation by electronic particle counter (Coulter Electronics, Hialeah, Fla.). […] Colonies were scored 7-11 days later. […]
FIG. 7 represents the toxicity of analog C-20'-deoxy vincovaline (A) and C-20'-deoxy deethyl vincovaline (B) to population growth of the rat colon adenocarcinoma cell lines. The congener was added at various concentrations to RCC-2 (.cndot.) and RCC-5 (Δ) cell cultures and the population cell number was determined 72 hours later. […]

[3] = tested on: S180 cells, parental; experiment: Modulation of intrinsic drug resistance, parental S180; assay type: cell-based, murine; settings: for effect on VBL toxicity in parental S180 cells (in words): 50-fold concentration range; for modulation of sensitivity of parental S180 cells to VBL, VCR and ADM (in words): all three drugs
Protocol: as §2
The ability of the compounds to modulate drug sensitivity in parental cells was studied over a range of concentrations of each compound, from 10^-6 M to the non-toxic (IC10-20) or solubility limit. […] From such experiments, we determined a sensitivity index derived from the IC50 of the drug without modulator treatment divided by the drug IC50 at each concentration of modulator.
When the sensitivity index for each drug, VBL, VCR and ADM is plotted versus the modulator concentration (FIG. 4), we can compare the relative potencies of the compounds as modulators of drug toxicity to the parental S180 cells.
*calculated as the IC50 of the drug alone divided by the IC50 o
the [drug modulator] combination. Data are presented from tretments with
FIG. 4 represents the potency of the vinca alkaloid compounds as modulators of drug sensitivity in S180 cells. The enhancement of sensitivity was calculated as the sensitivity index=IC50 of the drug alone divided by the IC50 of the drug+modulator. The IC50s for ADM (o) VBL (Δ), or VCR (.quadrature.) were determined over a concentration range of each modulator from data such as those depicted in FIG. 3. The values presented were averaged from duplicate samples of two separate experiments, S.D. <15% of the mean.

[4] = tested on: RCC-2 and RCC-5 cells; experiment: Modulation of intrinsic drug resistance, RCC-2 and RCC-5; assay type: cell-based, rat; settings: at the non-toxic concentration limit of 1-2 μM
Protocol: as §2

[5] = tested on: S180/A10 cells; experiment: Modulator potency in MDR cells: reversal of acquired resistance, S180/A10; assay type: cell-based, murine; settings: A10 cells, 90 fold ADM resistance
Protocol: as §2
(§3) To evaluate the ability of vindoline and the two diastereoisomeric VBL analogs to modulate the MDR phenotype (acquired resistance) of the A3 and A10 cell stains, we determined the concentration of compound required to restore drug sensitivities to parental levels. This was done by exposing the MDR cell line to a concentration range of modulator in the presence VBL, VCR and ADM at the respective IC70s of the parental cell line. The cytotoxicity curves for A3 and A10 cells, shown in FIG. 5, are distinctive among the three vinca alkaloids examined. In each cell line, there was a minimum concentration of modulator that elicited 70% growth inhibition for each drug - i.e. the reversing concentration.
*The minimal concentration of modulator required to restore the drug
sensitivity of S180/MDR cell strains to that of parental S180 cells. Data
are the averages of 2-3 separate experiments, S.D. ≤20%.

[6] = tested on: S180 MDR cell strains A3 and A10; experiment: Modulation of acquired drug resistance in the S180 MDR cell strains A3 and A10; assay type: cell-based, murine; settings: A3 and A10
Protocol: as §2, §3
FIG. 5 represents the modulation of multidrug resistance in the MDR cell strains by the vinca alkaloids. Vindoline (A), vincovaline (B), or the analog C-20'-deoxy vincovaline (C) was added, at various concentrations, to A3 (closed symbols) or A10 (opened symbols) cell cultures containing the parental IC70 of each drug: 2.0×10^-7 M. ADM (circles: 1.5×10^-8 M VBL (triangles); and 4.5×10^-8 M; VCR (squares). Population growth was determined 72 hours later.
FIG. 6 represents the relationship between cellular drug resistance level and the minimal modulator concentration required for complete reversal of drug resistance. The drugs examined were ADM (o), VBL (Δ), and VCR (.quadrature.). The amount (concentration) of modulator, necessary to reverse each level of drug resistance contained in the A3 and A10 cell lines, was determined from data such as those of FIG. 5. The values presented were averaged from duplicate samples of two separate experiments, S.D.<15% of the mean. The arrows denote the non-toxic concentration limit for the modulator; in the case of Vincovaline this value is dependent on the MDR cell strain, 2×10^-5 M, A3; 5×10^-5 M. A10.
FIG. 11 represents the modulation of multidrug resistance in the S180 MDR cell strains A3 and A10. The cellular drug resistance level is plotted against the minimal concentration of C-20'-deoxy deethyl vincovaline required for the complete reversal of drug resistance to ADM (o), VBL (Δ), and VCR (.quadrature.). In the case of high level ADM resistance […], the sensitivity of the cells was restored to 80% of the parental value. The arrow denotes the non-toxic concentration limit of the analog.

[7] = Inhibition of population growth (cytotoxicity), MDR strain S180/A3; assay type: cell-based, mouse; settings: mouse, s180/a3 cells; read-out: non-toxic concentration limit for the modulator
From the text: as §1, §2

[8] = Inhibition of population growth (cytotoxicity), MDR strain S180/A10; assay type: cell-based, mouse; settings: mouse, s180/a10 cells; read-out: non-toxic concentration limit for the modulator
From the text: as §1, §2

[9] = listed as C-20'-deoxy Vincovaline

Row | Compound | IC50 ([1]; S-180, read-out: IC50 (inhibition of cell growth)) | inherent cytotoxicity / resistance profile (in words) [1] | inherent cytotoxicity / resistance profile (in words) ([1]; 16', 20'-epi-VBL) | non-toxic concentration limit (in words) ([1]; S180 cell system) | MNTC at 72 h [2] | effect on VBL toxicity in parental S180 cells (in words) [3] | effect on VBL toxicity in parental S180 cells (in words) [3, 9] | modulation of VCR and ADM cytotoxicity in parental S180 cells (in words) [3] | modulation of VCR and ADM cytotoxicity in parental S180 cells (in words) [3, 9] | modulation of VCR and ADM cytotoxicity in parental S180 cells (in words) ([3]; listed as C-29'-deoxy vincovaline) | sensitization to VBL, VCR and ADM [4] | reversal of high level ADM resistance (in words) [5] | modulation of cellular resistance to VBL, VCR and ADM in MDR cell strains (in words) [6] | modulation of cellular resistance to VBL, VCR and ADM in MDR cell strains (in words) ([6]; 16', 20'-epi-VBL) | MNTC at 72 h [7] | MNTC at 72 h [8] | IC50 ([1]; S-180, S180 parental and MDR cell lines, read-out: IC50 (inhibition of cell growth)) | modulation of sensitivity of parental S180 cells to VBL, VCR and ADM (in words) [3] | modulation of sensitivity of parental S180 cells to VBL, VCR and ADM (in words) ([3]; listed as Vincovaline) | modulation of cellular resistance to VBL, VCR and ADM in MDR cell strains (in words) ([6]; listed as C-14', 16', 20'-epi-VBL)
1 | CC[C@H]1C[C@H]2CN(CCc3c([nH]c4ccccc34)[C@](C(=O)OC)(c3cc4c(cc3OC)N(C)[C@H]3[C@@](O)(C(=O)OC)[C@H](OC(C)=O)[C@]5(CC)C=CCN6CC[C@]43[C@@H]65)C2)C1 [C-20'-deoxy vincovaline, C-20'-deoxy C-14', 16', 20'-epi-VBL] | > 10 µM | very weak cytotoxic agent | cross-resistance | beyond the limits of solubility | 1000 to 2000 nM | no effect on cell sensitivity to VBL | no effect on VBL toxicity | progressive sensitization of the cells to the drug with increasing analog concentrations; also recorded: similar, concentration-dependent enhancement of VCR and ADM cytotoxicity; also recorded: sensitizes S180 cells to ADM and VCR but not to VBL | similar, concentration-dependent enhancement | most potent modulator of intrinsic resistance to ADM and VCR | 2- to 4 fold | reversing completely the high level ADM resistance (90 fold) | reverses MDR in the A3 and A10 cell strains, without evidence of drug-specificity | modulators of cellular resistance to VBL, VCR and ADM | – | – | – | – | – | –
2 | CC[C@@]1(O)C[C@H]2CN(CCc3c([nH]c4ccccc34)[C@](C(=O)OC)(c3cc4c(cc3OC)N(C)[C@H]3[C@@](O)(C(=O)OC)[C@H](OC(C)=O)[C@]5(CC)C=CCN6CC[C@]43[C@@H]65)C2)C1 [vincovaline, C-14', 16', 20'-epi-VBL] | – | cross-resistance | – | – | – | – | – | – | – | – | – | limited in this activity by their own cytoxicity in the MDR cell lines | significant activity with MDR cells is coincident with its non-toxic concentration limit in each cell line | – | 20 µM | 50 µM | > 10 µM | sensitized the parental S180 cells to all three drugs | weak modulator of drug sensitivity; also recorded: poor modulator of drug sensitivity in the parental cell line | modulators of cellular resistance to VBL, VCR and ADM
